From patent US6440900B1, “Method for extending the life of cut flowers” (Engelhard Corporation, priority 2001, dated 2002)

What was measured:
fresh red roses = experiment: Cut flower life test: 5 fresh red roses per beaker of treated tap water, monitored daily for bloom death; assay type: in vivo, rose; settings: for Average Flower Life: 5 per beaker
Protocol: In the following examples, test were conducted with fresh red roses obtained from a single source. The stems were cut (under water) and, for each experimental test, 5 roses were placed in a beaker. The same person monitored the flowers every day (the criterion for bloom death was that the monitor would have discarded the roses if the roses were in the monitor's home). Thereafter, the average flower life in days was calculated for each experimental condition.
Five beakers of 800 ml tap water containing 0, 2, 5, 10 and 15 ppm chlorine dioxide were used for these tests.
Example 1 was repeated using tap water alone, tap water containing 5 ppm chlorine dioxide, tap water containing “Aquaplus®” and tap water containing 5 ppm chlorine dioxide and “Aquaplus®”. “Aquaplus®” is described as a fresh flower nutrient and water clarifier and was obtained from Syndicate Sales, Kokomo, Ind.

[1] = Spectroscopic evaluation of the flower water for chlorine dioxide; assay type: physicochemical; settings: third day of the tests; uncovered beakers, tap water
Description: As may be seen from the results set forth in Table 1, the roses in the beaker containing no chlorine dioxide had the shortest lifetime. […] Roses with less or more chlorine dioxide had intermediate lifetimes. […] This was not surprising since the beakers were uncovered and chlorine dioxide could readily escape or decompose.

[O][Cl+][O-] [Chlorine Dioxide, chlorine dioxide]
Average Flower Life (fresh red roses; 2 ppm chlorine dioxide in 800 ml tap water): 5.6 days | Change of lifetime of the roses compared to no chlorine dioxide / plain water control (fresh red roses; 5 ppm chlorine dioxide): approximately doubled | Average Flower Life (fresh red roses; 5 ppm chlorine dioxide in 800 ml tap water): 7.8 days | Average Flower Life (fresh red roses; 10 ppm chlorine dioxide in 800 ml tap water): 5.8 days | Average Flower Life (fresh red roses; 15 ppm chlorine dioxide in 800 ml tap water): 5.8 days | Flower Lifetime (fresh red roses; Example 2, tap water containing 5 ppm ClO2): 7.8 days | Chlorine dioxide present in the flower water [1]: no chlorine dioxide was present
